Each structure is given as a SMILES string.

Our source for the IC50 values is paper PMC8173610 (Biochemistry, 2021).

The target in the assay is microtubule-associated protein tau (Homo sapiens, UniProt P10636). It is filed as biochemical.
microtubule-associated protein tau, sequence (P10636 1-441 isoform P10636-8): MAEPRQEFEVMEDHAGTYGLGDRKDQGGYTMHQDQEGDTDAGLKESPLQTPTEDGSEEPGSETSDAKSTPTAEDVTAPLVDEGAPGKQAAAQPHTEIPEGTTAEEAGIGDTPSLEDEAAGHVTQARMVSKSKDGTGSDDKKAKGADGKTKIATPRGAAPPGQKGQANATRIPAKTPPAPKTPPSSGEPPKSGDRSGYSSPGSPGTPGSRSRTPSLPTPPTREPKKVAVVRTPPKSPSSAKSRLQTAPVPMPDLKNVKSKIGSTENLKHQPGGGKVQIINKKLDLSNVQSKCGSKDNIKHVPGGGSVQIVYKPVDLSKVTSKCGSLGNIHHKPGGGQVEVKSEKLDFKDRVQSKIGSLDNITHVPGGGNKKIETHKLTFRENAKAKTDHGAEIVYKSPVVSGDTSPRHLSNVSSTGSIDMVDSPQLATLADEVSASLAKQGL

One may read the IC50 as the concentration needed to halve the response being measured. The compound `CCCCCCCCCc1cc2cc(O)c(C)c(O)c2cn1` [ANTC-15, 7-methyl-3-nonylisoquinoline-6,8-diol] returned a half-maximal inhibitory concentration (IC50) of 35 µM.
